Here are results for 9 compounds from PMC12810351, “Structure-effect relationship of phenolic compounds on α-amylase inhibition studied by isothermal titration calorimetry” (Current Research in Food Science, 2025).

Molecules are shown by their SMILES. Like-named read-outs stand apart in the source and are kept apart here.

The target in assay [1] is T1, porcine pancreatic α-amylase (Sus scrofa, UniProt P00690).
T1 sequence (P00690 16-511): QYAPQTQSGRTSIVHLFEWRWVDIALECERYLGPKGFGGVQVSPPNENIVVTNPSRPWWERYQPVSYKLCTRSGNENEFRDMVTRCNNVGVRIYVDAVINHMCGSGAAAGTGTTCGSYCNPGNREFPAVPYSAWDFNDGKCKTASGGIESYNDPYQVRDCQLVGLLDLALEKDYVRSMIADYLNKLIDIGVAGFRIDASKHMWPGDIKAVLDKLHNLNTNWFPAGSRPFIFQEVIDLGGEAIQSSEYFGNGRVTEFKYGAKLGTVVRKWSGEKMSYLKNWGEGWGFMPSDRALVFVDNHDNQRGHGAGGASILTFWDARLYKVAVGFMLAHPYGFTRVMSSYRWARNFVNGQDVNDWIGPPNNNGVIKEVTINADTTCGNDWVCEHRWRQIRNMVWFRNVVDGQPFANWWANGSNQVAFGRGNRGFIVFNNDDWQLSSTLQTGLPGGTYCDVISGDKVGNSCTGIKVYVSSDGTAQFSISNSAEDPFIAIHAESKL
The assay is described as follows: starch hydrolysis by α-amylase monitored by isothermal titration calorimetry (ITC). It is filed as biochemical. To be noted: for remaining activity at 100 µM: 100 μM polyphenol; for inhibition mechanism suggested by Kic/Kiu ratios: polyphenol standards. The method, then: The amylase stock solution was diluted each day and stored during the day at 4 °C.
The experiments were conducted using an Affinity ITC LV instrument with a cell volume of 182 μL (TA Instruments, Eschborn, Germany). […] These controls were conducted to determine the optimal injection volume to achieve maximal velocity (vmax) (S11). […] Enzyme kinetic constants were determined at 310 K.
The heat released during starch conversion was continuously monitored, with calculations performed using Microsoft Excel® software. The enzymatic rate (v) is directly proportional to the measured thermal power (eq (1)).(1) v=dP/dt=1/Vcell·ΔRHapp·dQ/dt
The reaction enthalpy ( ΔRHapp ) is determined by integrating the heat peak over its entire duration, divided by the number of substrate molecules converted:(2) ΔRHapp=∫t=0∞dQ/dtdt/nS
(dQ/dt)max [%], ΔRHapp [%] und vmax [%] are calculated in relation to daily control.
The substrate concentration at time t ([S]t) is calculated according to eq (3).(3) [S]t=∫t∞dQ/dtdt/∫0∞dQ/dtdt·[S]t=0
Therefore, the thermogram contains all the required data for calculating inhibition constants. The maximal conversion rate vmax and the Michaelis-Menten constant Km are determined from control experiments conducted in the absence of an inhibitor. In the presence of an inhibitor [I] the apparent values of vmaxapp and Kmapp are obtained. Competitive inhibition (Kic, eq (5)) is due to the formation of an enzyme-inhibitor complex (EI), whereas uncompetitive inhibition (Kiu, eq (5)) occurs when an inhibitor binds to a […]:(5) Kic=vmaxapp/Kmapp·[I]/(vmax/Km)−(vmaxapp/Kmapp)Kiu=vmaxapp·[I]/vmax−vmaxapp
The IC50 value, a key pharmacological metric, is used to compare the potency of inhibitors. […] The conversion rate (v0) was calculated from the thermogram according to eq (1), and subsequently plotted against the […]
For orientation: ITC needs no label: the signal is the heat of the interaction.

The target in assay [2] is α-amylase. Also noted: method as in Kaeswurm et al. (2019). The note with it: substrate GalG2CNP, CNP UV/Vis, ref Kaeswurm et al. (2019), cited from earlier work.
In assay [3] the target is α-amylase. Details: key to Kic [μM] / Kiu [μM] / IC50 [μM]: “–” no inhibition. To be noted: substrate starch, PAHBAH UV/Vis, cited from earlier work.
Assay [4] concerns the target α-amylase. To be noted: substrate starch, DNS UV/Vis, cited from earlier work; for Ki: read-out: Kic.
The mark [5] stands for this setting: 26 nM α-amylase, starch, 310 K, relative to control without inhibitor, read-out: (dQ/dt)max [%].
[6] abbreviates: relative to control, read-out: vmax [%].
Where [7] appears, read: calculated based on the mass concentration.
Where [8] appears, read: calculated based on the mass concentration, read-out: IC50 [g/L] (converted).
Setting [9] is: calculated based on the mass concentration, read-out: Kic [g/L] (converted).
Where [10] appears, read: calculated based on the mass concentration, read-out: Kiu [g/L] (converted).
The mark [11] stands for this setting: competitive inhibition constant, substrate starch, ITC, 100 μM polyphenol (EGCG 25 μM), read-out: Kic.
Setting [12] is: substrate starch, ITC, calculated by eq (6), substrate concentration of 1 M (IC50 equivalent to Kiu), read-out: IC50*.
Where [13] appears, read: uncompetitive inhibition constant, substrate starch, ITC, 100 μM polyphenol (EGCG 25 μM), read-out: Kiu.

Regarding `O=C(CCc1ccc(O)cc1)c1c(O)cc(O)cc1O[C@@H]1O[C@H](CO)[C@@H](O)[C@H](O)[C@H]1O` [PHL, phlorizin], the remaining activity at 100 µM in assay [1] (setting [5]) came to 83 ± 4%; in assay [1] (setting [6]), 89 ± 7%. For the same compound, the “α (Kic/Kiu)” value in assay [1] (setting [7]) is given as 0.76 ± 0.08. Further, the IC50 in assay [1] (setting [8]) was 504 µM; in assay [1] (setting [12]), 572 ± 145 µM; in assay [2], 391 µM. Also, the Ki in assay [1] (setting [9]) is 412 µM; in assay [1] (setting [10]) it was 573 µM; in assay [1] (setting [11]) it was 418 ± 127 µM; in assay [1] (setting [13]), 573 ± 145 µM; in assay [2] (read-out: Kic), 151 µM; in assay [2] (read-out: Kiu), 391 µM. In addition, the inhibition type result in assay [1] (substrate starch, ITC) is on record as “mixed”. In assay [3] (ref Li et al. (2019)), the “IC50 [μM]” value is “–”. For the same compound, the “Kic [μM]” value in assay [3] (ref Li et al. (2019)) is “–”. Moreover, the “Kiu [μM]” value in assay [3] (ref Li et al. (2019)) is reported as “–”.
Turning to `Oc1cc(O)c2c(c1)O[C@H](c1ccc(O)c(O)c1)[C@H](O)C2` [EC, (−)-epicatechin], the remaining activity at 100 µM in assay [1] (setting [5]) turned out to be 82 ± 8%; in assay [1] (setting [6]), 78 ± 4%. Further, in assay [1] (setting [7]), the “α (Kic/Kiu)” value was 0.74 ± 0.10. The IC50 in assay [1] (setting [8]) was 482 µM; in assay [1] (setting [12]), 385 ± 82 µM. The Ki in assay [1] (setting [9]) was 379 µM; in assay [1] (setting [10]), 517 µM; in assay [1] (setting [11]), 253 ± 47 µM; in assay [1] (setting [13]) it was 385 ± 82 µM. For the same compound, the “inhibition mechanism suggested by Kic/Kiu ratios” value in assay [1] is recorded as “preferentially bind to the enzyme”.
For `Oc1cc(O)c2c(c1)O[C@H](c1ccc(O)c(O)c1)[C@H](O)[C@H]2c1c(O)cc(O)c2c1O[C@H](c1ccc(O)c(O)c1)[C@@H](O)C2` [PC B1, procyanidin B1], the results for the remaining activity at 100 µM in assay [1] (setting [5]) and in assay [1] (setting [6]) were 66 ± 14% and 66 ± 9%, respectively. For the same compound, the “α (Kic/Kiu)” value in assay [1] (setting [7]) was 0.71 ± 0.20. Further, the IC50 in assay [1] (setting [8]) was 190 µM; in assay [1] (setting [12]), 219 ± 91 µM. Further, the Ki in assay [1] (setting [9]) was 156 µM; in assay [1] (setting [10]), 225 µM; in assay [1] (setting [11]) it was 155 ± 79 µM; in assay [1] (setting [13]), 219 ± 91 µM.
Turning to `C[C@@H]1O[C@@H](OC[C@H]2O[C@@H](Oc3c(-c4ccc(O)c(O)c4)oc4cc(O)cc(O)c4c3=O)[C@H](O)[C@@H](O)[C@@H]2O)[C@H](O)[C@H](O)[C@H]1O` [rutin, quercetin-3-O-rutinoside], the remaining activity at 100 µM in assay [1] (setting [5]) was 90 ± 6%; in assay [1] (setting [6]) it was 92 ± 4%. The “α (Kic/Kiu)” value in assay [1] (setting [7]) was 0.28 ± 0.12. Besides, the IC50 in assay [1] (setting [8]) was 770 µM; in assay [1] (setting [12]), 1540 ± 855 µM; in assay [4] (ref Souza Schmidt Gonçalves et al. (2010)) it was 1.2 µM. Also, the Ki was 360 µM in assay [1] (setting [9]); 1560 µM in assay [1] (setting [10]); 354 ± 55 µM in assay [1] (setting [11]); 1560 ± 872 µM in assay [1] (setting [13]); 8.96 µM in assay [4] (ref Li et al. (2009)). The “inhibition mechanism suggested by Kic/Kiu ratios” value in assay [1] is “preferentially bind to the enzyme”. Besides, the inhibition type entry in assay [1] (substrate starch, ITC) is listed as “mixed”.
In the case of `OC[C@H]1O[C@@H](Oc2cc3c(O)cc(O)cc3[o+]c2-c2ccc(O)c(O)c2)[C@H](O)[C@@H](O)[C@@H]1O` [CYD-3-glc, cyanidin-3-O-glucoside], the results for the remaining activity at 100 µM in assay [1] (setting [5]) and in assay [1] (setting [6]) were 74 ± 10% and 65 ± 4%, respectively. Besides, the “α (Kic/Kiu)” value in assay [1] (setting [7]) is 0.71 ± 0.05. For the same compound, the Ki in assay [1] (setting [9]) was 156 µM; in assay [1] (setting [10]) it was 223 µM; in assay [1] (setting [11]), 143 ± 30 µM; in assay [1] (setting [13]), 201 ± 34 µM; in assay [4] (ref Sui et al. (2016)), 140 µM; in assay [3] (ref Le et al. (2024), read-out: Kic), 390 µM. Besides, the Ki in assay [3] (ref Le et al. (2024), read-out: Kiu) was 210 µM. Besides, the “inhibition mechanism suggested by Kic/Kiu ratios” value in assay [1] is “preferentially bind to the enzyme”. Besides, the inhibition type result in assay [1] (substrate starch, ITC) is recorded as “mixed”. The IC50 was 200 ± 34 µM in assay [1] (setting [12]); 300 µM in assay [4] (ref Akkarachiyasit et al., (2010)); 240 µM in assay [4] (ref Sui et al. (2016)); 340 µM in assay [3] (ref Le et al. (2024)).
As for `Oc1cc(O)c2c(c1)O[C@H](c1ccc(O)c(O)c1)[C@@H](O)C2` [CAT, (+)-catechin], in assay [1] (setting [7]), the “IC50” value was 120 ± 50 µg/mL, the “Kic” value is 0.10 ± 0.06 g/L, the “Kiu” value is on record as 0.14 ± 0.06 g/L and the “α (Kic/Kiu)” value is reported as 0.75 ± 0.40.
On to `Oc1cc(O)c2c(c1)O[C@H](c1ccc(O)c(O)c1)[C@H](O)[C@H]2c1c(O)cc(O)c2c1O[C@H](c1ccc(O)c(O)c1)[C@H](O)C2` [PC B2, procyanidin B2], for which, in assay [1] (100 μM polyphenol (EGCG 25 μM)), the “reversibility of inhibition (from ΔRHapp)” value is recorded as “irreversible aggregation”. Also, the figures for the remaining activity at 100 µM in assay [1] (setting [5]) and in assay [1] (setting [6]) were 56 ± 4% and 62 ± 4%, respectively. Besides, the “α (Kic/Kiu)” value in assay [1] (setting [7]) is on record as 0.94 ± 0.13. For the same compound, the figures for the IC50 in assay [1] (setting [8]) and in assay [1] (setting [12]) were 121 µM and 173 ± 26 µM, respectively. Further, the Ki was 121 µM in assay [1] (setting [9]), 121 µM in assay [1] (setting [10]), 177 ± 39 µM in assay [1] (setting [11]) and 173 ± 26 µM in assay [1] (setting [13]).
Regarding `Oc1cc(O)c2c(c1)O[C@H](c1ccc(O)c(O)c1)[C@H](O)[C@H]2c1c(O)cc(O)c2c1O[C@H](c1ccc(O)c(O)c1)[C@H](O)[C@H]2c1c(O)cc(O)c2c1O[C@H](c1ccc(O)c(O)c1)[C@H](O)C2` [PC C1, procyanidin C1], the “reversibility of inhibition (from ΔRHapp)” value in assay [1] (100 μM polyphenol (EGCG 25 μM)) was “irreversible aggregation”. The remaining activity at 100 µM in assay [1] (setting [5]) worked out at 44 ± 4%; in assay [1] (setting [6]), 50 ± 4%. The “α (Kic/Kiu)” value in assay [1] (setting [7]) is given as 0.90 ± 0.12. In addition, the IC50 is 104 µM in assay [1] (setting [8]) and 103 ± 16 µM in assay [1] (setting [12]). In addition, the Ki in assay [1] (setting [9]) was 92.3 µM; in assay [1] (setting [10]) it was 104 µM; in assay [1] (setting [11]), 94 ± 26 µM; in assay [1] (setting [13]), 103 ± 16 µM.
Consider `O=c1c(O[C@@H]2O[C@H](CO)[C@@H](O)[C@H](O)[C@H]2O)c(-c2ccc(O)c(O)c2)oc2cc(O)cc(O)c12` [Q-3-glc, quercetin-3-O-glucoside], for which the remaining activity at 100 µM was determined as 72 ± 9% in assay [1] (setting [5]) and 63 ± 4% in assay [1] (setting [6]). Moreover, the “α (Kic/Kiu)” value in assay [1] (setting [7]) is 0.65 ± 0.07. The results for the IC50 in assay [1] (setting [8]) and in assay [1] (setting [12]) were 151 µM and 178 ± 28 µM, respectively. Moreover, the Ki in assay [1] (setting [9]) is 108 µM; in assay [1] (setting [10]) it was 172 µM; in assay [1] (setting [11]), 115 ± 16 µM; in assay [1] (setting [13]) it was 179 ± 28 µM; in assay [4] (ref Li et al. (2009)) it was 5.35 µM. In addition, the “inhibition mechanism suggested by Kic/Kiu ratios” value in assay [1] is “preferentially bind to the enzyme”. Besides, the inhibition type entry in assay [1] (substrate starch, ITC) is on record as “mixed”.
